Among the data in patent publication US6686350B1, “Cell adhesion inhibitors” (Biogen, Inc., priority 1996, dated 2004) are IIb/IIIa inhibitory activity, melting point and IC50 values, retold here.

SMILES strings stand for the structures.

Sequence of IIb/IIIa (P08514 32-887 limits assumed): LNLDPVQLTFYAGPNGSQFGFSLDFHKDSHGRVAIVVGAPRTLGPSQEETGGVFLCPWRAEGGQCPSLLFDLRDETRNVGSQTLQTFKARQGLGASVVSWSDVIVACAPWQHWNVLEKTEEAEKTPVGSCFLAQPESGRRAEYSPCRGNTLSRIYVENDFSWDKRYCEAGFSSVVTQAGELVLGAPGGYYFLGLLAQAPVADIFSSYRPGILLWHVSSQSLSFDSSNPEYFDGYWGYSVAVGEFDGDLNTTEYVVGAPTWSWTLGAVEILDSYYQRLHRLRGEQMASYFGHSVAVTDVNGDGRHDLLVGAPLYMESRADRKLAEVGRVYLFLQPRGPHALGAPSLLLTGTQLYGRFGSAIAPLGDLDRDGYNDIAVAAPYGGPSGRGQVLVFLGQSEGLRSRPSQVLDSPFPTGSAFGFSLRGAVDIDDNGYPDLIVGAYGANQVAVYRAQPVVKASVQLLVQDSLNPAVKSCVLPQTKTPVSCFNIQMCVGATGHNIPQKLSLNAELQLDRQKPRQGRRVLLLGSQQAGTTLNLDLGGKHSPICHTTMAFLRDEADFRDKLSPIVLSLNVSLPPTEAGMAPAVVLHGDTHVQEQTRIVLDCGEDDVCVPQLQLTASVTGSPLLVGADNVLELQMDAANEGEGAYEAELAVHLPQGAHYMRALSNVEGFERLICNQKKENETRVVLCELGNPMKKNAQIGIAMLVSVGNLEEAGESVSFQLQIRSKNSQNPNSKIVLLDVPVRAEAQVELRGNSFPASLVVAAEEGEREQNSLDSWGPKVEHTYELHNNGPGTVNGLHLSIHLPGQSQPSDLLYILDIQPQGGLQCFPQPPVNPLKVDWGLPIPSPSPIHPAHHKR
Sequence of IIb/IIIa (P08514 891-1039 limits assumed): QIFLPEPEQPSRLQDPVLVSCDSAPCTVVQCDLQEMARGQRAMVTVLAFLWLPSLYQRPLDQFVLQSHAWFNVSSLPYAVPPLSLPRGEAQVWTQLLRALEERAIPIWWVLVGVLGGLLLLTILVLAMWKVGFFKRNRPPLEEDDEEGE
Sequence of IIb/IIIa (P05106 27-788): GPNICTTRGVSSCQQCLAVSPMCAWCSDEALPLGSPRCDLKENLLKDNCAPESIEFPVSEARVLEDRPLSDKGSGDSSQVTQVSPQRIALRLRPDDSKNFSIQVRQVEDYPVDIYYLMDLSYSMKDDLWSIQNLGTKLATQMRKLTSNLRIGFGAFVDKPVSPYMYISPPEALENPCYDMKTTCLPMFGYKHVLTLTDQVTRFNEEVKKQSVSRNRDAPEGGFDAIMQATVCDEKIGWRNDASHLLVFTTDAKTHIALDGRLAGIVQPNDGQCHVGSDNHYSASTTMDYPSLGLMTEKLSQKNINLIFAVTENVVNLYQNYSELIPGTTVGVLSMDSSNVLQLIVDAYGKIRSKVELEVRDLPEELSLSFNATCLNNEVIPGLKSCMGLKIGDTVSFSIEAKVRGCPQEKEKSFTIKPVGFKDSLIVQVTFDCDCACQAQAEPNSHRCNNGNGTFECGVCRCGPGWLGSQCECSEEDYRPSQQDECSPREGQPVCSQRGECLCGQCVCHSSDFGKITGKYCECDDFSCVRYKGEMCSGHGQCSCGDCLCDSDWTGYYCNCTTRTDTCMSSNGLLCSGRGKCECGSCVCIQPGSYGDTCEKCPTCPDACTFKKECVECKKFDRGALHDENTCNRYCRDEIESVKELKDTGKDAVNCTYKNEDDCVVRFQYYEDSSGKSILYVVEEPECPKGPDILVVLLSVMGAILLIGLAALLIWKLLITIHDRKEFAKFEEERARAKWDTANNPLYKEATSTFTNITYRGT

One series has as its target IIb/IIIa (Homo sapiens, UniProt P05106+P08514). The experiment in a line: IIb/IIIa inhibitory activity (receptor-ligand binding or platelet aggregation). As to conditions: qualitative statement. The source says:
In a basic embodiment, therefore, one skilled in the art first identifies a compound having IIb/IIIa inhibitory activity. Compounds having IIb/IIIa inhibitory activity are well known to those skilled in the art, and are readily available, see, e.g., Table 2 and the references incorporated herein in the Background of the Invention. For purposes of this invention, one skilled in the art may use any of these known compounds. Alternatively, one may determine in assays known to those skilled in the art whether a particular compound has IIB/IIIa activity. If the assay is positive, then the scaffold will be useful in the present invention. Assays for IIb/IIIa inhibitory activity are well known in the art. […] (WO 093/00095, specifically incorporated herein by reference.) Additionally, the aforementioned binding to ligands can be assessed by one skilled in the art in a platelet aggregation assay.
As for `CN(CC(=O)N1CCC(C2CCNCC2)CC1)C(=O)CN(CCC(=O)O)C(=O)c1ccccc1` [Compound B], the IIb/IIIa inhibitory activity result is given as “potent IIB/IIIa inhibitor”.

Test system in the next series: not given
Assay: not given
Details: not given
Turning to `COCCC(=O)N(CCC(=O)O)CC(=O)N(CCC(C)C)CC(=O)Nc1ccc(NC(=O)Nc2ccccc2C)cc1` [AY44], the melting point (in general, the temperature, or range, at which the solid turns liquid) was in the range of 164 to 166 °C.

In a further series the target is T1, VLA-4 (Homo sapiens, UniProt P05556+P13612).
T1 construct: endogenous in cells; host or cells: Jurkat cells
T1 sequence (P13612 34-1032): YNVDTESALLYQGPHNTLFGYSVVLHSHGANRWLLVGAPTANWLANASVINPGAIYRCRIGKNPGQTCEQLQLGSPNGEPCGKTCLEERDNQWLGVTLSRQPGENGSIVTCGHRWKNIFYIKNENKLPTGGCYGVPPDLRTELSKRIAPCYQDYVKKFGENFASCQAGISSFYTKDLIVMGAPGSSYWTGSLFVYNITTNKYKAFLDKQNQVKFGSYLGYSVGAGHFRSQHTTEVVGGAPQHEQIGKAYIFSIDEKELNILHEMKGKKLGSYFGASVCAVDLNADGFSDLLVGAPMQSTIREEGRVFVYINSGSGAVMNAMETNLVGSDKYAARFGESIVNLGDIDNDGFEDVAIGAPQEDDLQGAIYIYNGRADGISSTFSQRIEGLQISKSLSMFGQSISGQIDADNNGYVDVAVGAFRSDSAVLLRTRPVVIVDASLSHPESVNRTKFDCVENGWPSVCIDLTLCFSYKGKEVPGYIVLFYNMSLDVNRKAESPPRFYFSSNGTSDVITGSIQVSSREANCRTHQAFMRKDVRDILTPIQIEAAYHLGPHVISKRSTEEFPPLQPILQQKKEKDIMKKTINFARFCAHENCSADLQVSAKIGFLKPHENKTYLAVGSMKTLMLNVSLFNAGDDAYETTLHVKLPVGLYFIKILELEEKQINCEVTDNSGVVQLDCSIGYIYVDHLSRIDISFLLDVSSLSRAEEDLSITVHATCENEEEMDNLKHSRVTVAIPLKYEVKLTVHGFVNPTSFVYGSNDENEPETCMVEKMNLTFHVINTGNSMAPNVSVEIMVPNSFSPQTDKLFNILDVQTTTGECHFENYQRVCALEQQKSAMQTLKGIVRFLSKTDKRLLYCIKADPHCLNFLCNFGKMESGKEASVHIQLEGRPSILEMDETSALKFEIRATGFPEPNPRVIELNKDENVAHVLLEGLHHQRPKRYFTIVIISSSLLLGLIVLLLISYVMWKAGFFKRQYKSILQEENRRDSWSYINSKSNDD
T1 sequence (P05556 21-798): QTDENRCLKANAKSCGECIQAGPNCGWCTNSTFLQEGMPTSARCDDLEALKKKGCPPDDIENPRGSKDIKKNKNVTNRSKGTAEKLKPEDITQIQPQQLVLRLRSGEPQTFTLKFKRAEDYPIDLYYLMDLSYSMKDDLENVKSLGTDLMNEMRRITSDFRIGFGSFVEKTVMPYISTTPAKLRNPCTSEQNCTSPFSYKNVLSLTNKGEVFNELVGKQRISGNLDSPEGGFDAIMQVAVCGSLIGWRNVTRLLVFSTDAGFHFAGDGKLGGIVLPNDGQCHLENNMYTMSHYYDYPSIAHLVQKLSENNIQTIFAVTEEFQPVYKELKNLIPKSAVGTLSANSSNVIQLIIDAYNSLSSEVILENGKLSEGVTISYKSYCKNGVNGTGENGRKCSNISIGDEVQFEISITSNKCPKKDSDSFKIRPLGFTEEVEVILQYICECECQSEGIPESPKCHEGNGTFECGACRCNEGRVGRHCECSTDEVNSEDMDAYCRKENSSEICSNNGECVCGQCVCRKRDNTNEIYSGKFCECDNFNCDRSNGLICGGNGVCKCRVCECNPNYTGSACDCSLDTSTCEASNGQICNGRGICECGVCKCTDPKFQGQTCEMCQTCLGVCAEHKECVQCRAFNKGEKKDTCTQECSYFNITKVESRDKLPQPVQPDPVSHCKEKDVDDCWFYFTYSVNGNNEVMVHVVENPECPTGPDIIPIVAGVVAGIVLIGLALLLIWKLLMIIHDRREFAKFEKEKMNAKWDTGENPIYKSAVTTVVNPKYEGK
The experiment in a line: VLA-4 direct binding assay (VCAM-IgG alkaline phosphatase conjugate binding to Jurkat cells). As to conditions: Table 1, Structure-Activity; assay and unit inferred; read-out: Act.
As to `COc1ccc(C(CC(=O)O)NC(=O)[C@@H](CC(=O)Nc2ccc(NC(=O)Nc3ccccc3C)cc2)CC(C)C)cc1OC` (stereo partly shown) [SX44], the IC50 is 233 nM.

For `COc1ccc([C@H](CC(=O)O)NC(=O)CCC(=O)Nc2ccc(NC(=O)Nc3ccccc3)c(O)c2)cc1OC` [SX45], the IC50 turned out to be 216 nM.

Take `COc1ccc([C@H](CC(=O)O)NC(=O)C(CC(=O)Nc2ccc(NC(=O)Nc3ncccc3C)cc2)CC(C)C)cc1OC` (stereo partly shown) [SX46]: the IC50 came to 200 nM.

With `COc1ccc(C(CC(=O)O)NC(=O)C(CC(=O)Nc2ccc(NC(=O)Nc3ccccc3C)cc2)NS(C)(=O)=O)cc1OC` (stereo not shown) [SX47], the IC50 is 196 nM.

Consider `Cc1ccccc1NC(=O)Nc1ccc(N(C)C(=O)CCC(=O)N[C@H](C)CC(=O)O)cc1` [SX48], for which the IC50 was 195 nM.

`Cc1ccccc1NC(=O)Nc1ccc(NC(=O)CC(CC(C)C)C(=O)NC(C)CC(=O)O)cc1` (stereo not shown) [SX50]: the IC50 amounted to 167 nM.

In the case of `COc1ccc(C(CC(=O)O)NC(=O)CCC(=O)Nc2ccc(NC(=O)Nc3ccccc3C)cc2)cc1OC` (stereo not shown) [SX51], the IC50 was determined as 142 nM.

In the case of `COc1ccc([C@H](CC(=O)O)NC(=O)C(C)CC(=O)Nc2ccc(NC(=O)Nc3ccccc3)cc2)cc1OC` (stereo partly shown) [SX53], the IC50 was 65 nM.

Regarding `C=CC[C@H](CC(=O)O)NC(=O)C(C)CC(=O)Nc1ccc(NC(=O)Nc2ccccc2C)cc1` (stereo partly shown) [SX54], the IC50 worked out at 58.5 nM.

On to `Cc1ccccc1NC(=O)Nc1ccc(NC(=O)C[C@@H](CC(C)C)C(=O)NC(CC(=O)O)c2ccc3c(c2)OCO3)cc1` (stereo partly shown) [SX56], for which the IC50 came to 55 nM.

Take `Cc1ccccc1NC(=O)Nc1ccc(CC(=O)Nc2ccccc2OCCC(=O)O)cc1` [UX1]: the IC50 was determined as 4500 nM.
